Measurements from patent US20050043262A1, “Novel specific inhibitor of the cyclin kinase inhibitor p21Waf1/Cip1 and methods of using the inhibitor” (priority 2000, published 2005).

Legend:
caspase-3 = experiment: Caspase-3 activity (CaspACE colorimetric assay) in MCF-7 cells; format: cell-based, human; settings: MCF-7 cells (lack caspase-3)
Description: Caspase-3 Activity: The CaspACE Assay System was used to measure the activity of caspase-3. After incubation under appropriate conditions, the cells were lysed in CaspACE lysis buffer, and protein concentration was determined by dye reagent protein assay (Bio-Rad, Hercules, Calif.). […] The lysates with equal protein amounts were incubated with DEVD-p-nitroaniline substrate for 4 hours at 37° C. The reaction products were detected at 405 nm using a PowerWave X automated plate reader (Bio-Tek Instruments).
As another confirmatory test for antisense p21 ODN-mediated apoptosis, caspase-3 activation was assessed. Members of the caspase family of proteases are essential components of an evolutionarily conserved cell death pathway in multicellular eukaryotes and play key roles in inflammation and apoptosis in mammalian cells. Caspase-3 has substrate specificity for the amino acid sequence DEVD (Asp-Glu-Val-Asp) and is inhibited by the tetrapeptide inhibitor Ac-DEVD-CHO; its catalytic activity was assessed colorimetrically using the labeled Ac-DEVD-pNA substrate. […] T47D cells were grown to confluence, serum starved for 24 hours, and lipofected with antisense p21 or control ODN at the concentrations indicated. Caspase-3 activity was assessed as described in “Capase-3 Activity” using a colorimetric method. […]

bovine VSM cells = experiment: PDGF-BB-stimulated DNA synthesis in bovine VSM cells; format: cell-based; settings: bovine VSM cell line, various concentrations
Text: Cell culture, DNA synthesis, and proliferation assays: Cultures of both A10 and A7r5 rat aortic VSM cells were obtained from American Type Culture Collection (Rockville Md.). Bovine aortic smooth muscle cells were supplied by Martha O'Donnell (O'Donnell and Owen, 1986 Proc Natl. Acad. Sci.US.A., 83, p. 6132-6136). All of the cell lines were maintained as described (Weiss et al., 1998 Am. J. Physiol., 274, p. C1521-C1529) and were used between passages 15 and 25. The cells were growth-arrested by placing them in serum-free quiescence medium, exposed to growth factors as indicated, and [^3H]thymidine incorporation assessed as previously described (Weiss and Nuccitelli, 1992a J. Biol. Chem., 267, p. 5608-5613). Cell proliferation was assessed by counting of adherent cells on 4 representative fields under 100× magnification in each of 3 wells per experimental condition.
Antisense techniques were employed to examine the dependence of G1-phase progression on p21^Waf1/Cip1 in the VSM cell lines (Crooke, 1993 Antisense research and applications. Boca Raton, CRC.). […] DNA synthesis was assessed by [^3H]-thymidine incorporation and is expressed as mean ± s.e.m. of three wells per data point. […] After 18 hours of PDGF incubation, the cells were counted by examining representative fields at 100× magnification. The average number of cells in 4 random fields in each well was determined.

Met-1 cells = experiment: Growth of Met-1 cells in culture; format: cell-based, mouse; settings: transfection

Substance	caspase-3 cleavage (activity) (caspase-3)	PDGF-stimulated DNA synthesis (bovine VSM cells)	growth of Met-1 cells in culture (Met-1 cells)
5′-ATC-CCC-AGC-CGG-TTC-TGA-CAT-3′ (antisense ATCCCCAGCCGGTTCTGACAT; listed as DNA, chemistry not fully specified) [antisense p21 ODN]	did not show significant caspase-3 cleavage products		
5′-GACATCACCAGGATCGGACAT-3′		a similar effect	did not affect growth
